# Experimental data published in patent US9938273B2 (Plexxikon Inc., priority 2015, dated 2018).
# Target: T1, FLT3-ITD (Homo sapiens, UniProt P36888)
# T1 sequence (P36888 1-993): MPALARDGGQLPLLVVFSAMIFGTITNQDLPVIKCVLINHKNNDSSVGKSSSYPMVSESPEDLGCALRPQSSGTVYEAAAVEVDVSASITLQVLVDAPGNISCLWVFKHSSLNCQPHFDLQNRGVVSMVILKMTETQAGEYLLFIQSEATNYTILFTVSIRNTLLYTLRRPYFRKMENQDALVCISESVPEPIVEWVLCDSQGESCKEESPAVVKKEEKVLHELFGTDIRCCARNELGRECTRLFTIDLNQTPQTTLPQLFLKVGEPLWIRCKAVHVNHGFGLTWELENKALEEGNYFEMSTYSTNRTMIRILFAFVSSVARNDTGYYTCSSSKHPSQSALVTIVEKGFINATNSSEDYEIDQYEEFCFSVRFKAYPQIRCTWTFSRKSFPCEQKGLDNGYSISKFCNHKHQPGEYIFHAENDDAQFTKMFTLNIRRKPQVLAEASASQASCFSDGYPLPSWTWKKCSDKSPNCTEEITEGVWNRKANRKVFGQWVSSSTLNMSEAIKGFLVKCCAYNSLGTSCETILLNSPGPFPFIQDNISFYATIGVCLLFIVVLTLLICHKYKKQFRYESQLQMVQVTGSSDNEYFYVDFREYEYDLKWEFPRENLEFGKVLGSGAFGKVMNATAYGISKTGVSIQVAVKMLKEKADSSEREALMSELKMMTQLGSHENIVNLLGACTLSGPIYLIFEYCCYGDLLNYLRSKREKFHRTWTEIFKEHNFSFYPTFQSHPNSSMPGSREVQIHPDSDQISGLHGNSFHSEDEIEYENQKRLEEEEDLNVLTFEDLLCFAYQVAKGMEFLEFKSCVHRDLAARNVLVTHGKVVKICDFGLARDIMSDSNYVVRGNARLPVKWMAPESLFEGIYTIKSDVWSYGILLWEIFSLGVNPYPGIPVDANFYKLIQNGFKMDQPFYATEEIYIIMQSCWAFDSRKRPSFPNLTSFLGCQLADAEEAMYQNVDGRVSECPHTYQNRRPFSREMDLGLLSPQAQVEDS
# Experiment: AlphaScreen kinase assay with recombinant enzyme, FLT3-ITD
# Format: biochemical
# Settings: 8pt; read-out: FLT3_ITD 8pt: IC50
# In short: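 Tyrosine phosphorylation of biotin-poly(Glu4-Tyr) substrate by recombinant enzyme is detected with PY20 acceptor and streptavidin donor beads after room-temperature incubations of 20 and 60 min. IC50 values were derived at a final 10 μM (FLT3-D835Y, FLT3-ITD) or 100 μM (c-KIT).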
row,Compound,IC50 [µM]
1,"CCOC(=O)C1CCN(C(=O)c2cccc(-c3cnc4[nH]c(-c5ccccc5)cc4c3)n2)CC1 [Compound P-0025, ethyl 1-[6-(2-phenyl-1H-pyrrolo[2,3-b]pyridin-5-yl)pyridine-2-carbonyl]piperidine-4-carboxylate]",0.0001 to 10
2,"NCC1CCN(C(=O)c2cccc(-c3cnc4[nH]c(-c5ccccc5)cc4c3)n2)CC1 [Compound P-0026, [4-(aminomethyl)-1-piperidyl]-[6-(2-phenyl-1H-pyrrolo[2,3-b]pyridin-5-yl)-2-pyridyl]methanone]",0.0001 to 10
3,"CC1CCN(C(=O)c2n[nH]c3ccc(-c4cnc5[nH]c(-c6ccccc6)cc5c4)cc23)CC1 [Compound P-0027, (4-methyl-1-piperidyl)-[5-(2-phenyl-1H-pyrrolo[2,3-b]pyridin-5-yl)-1H-indazol-3-yl]methanone]",10 to 50
4,"CNC1CCN(C(=O)c2n[nH]c3ccc(-c4cnc5[nH]c(-c6ccccc6)cc5c4)cc23)C1 (stereo not drawn) [Compound P-0028, [3-(methylamino)pyrrolidin-1-yl]-[5-(2-phenyl-1H-pyrrolo[2,3-b]pyridin-5-yl)-1H-indazol-3-yl]methanone]",0.0001 to 10
5,"CNC1CCN(C(=O)c2cccc(-c3cnc4[nH]c(-c5ccccc5)cc4c3)n2)C1 (stereo not drawn) [Compound P-0040, [3-(methylamino)pyrrolidin-1-yl]-[6-(2-phenyl-1H-pyrrolo[2,3-b]pyridin-5-yl)-2-pyridyl]methanone]",0.0001 to 10
6,"CNC1CN(C(=O)c2cccc(-c3cnc4[nH]c(-c5ccccc5)cc4c3)n2)C1 [Compound P-0052, [3-(methylamino)azetidin-1-yl]-[6-(2-phenyl-1H-pyrrolo[2,3-b]pyridin-5-yl)-2-pyridyl]methanone]",0.0001 to 10
7,"CNC1CCN(C(=O)c2cccc(-c3cnc4[nH]c(-c5ccc(F)cc5)cc4c3)n2)C1 (stereo not drawn) [Compound P-0055, [6-[2-(4-fluorophenyl)-1H-pyrrolo[2,3-b]pyridin-5-yl]-2-pyridyl]-[3-(methylamino)pyrrolidin-1-yl]methanone]",0.0001 to 10
8,"CN[C@@H]1CCN(C(=O)c2cccc(-c3cnc4[nH]c(-c5ccccc5)cc4c3)n2)C1 [Compound P-0058, [(3R)-3-(methylamino)pyrrolidin-1-yl]-[6-(2-phenyl-1H-pyrrolo[2,3-b]pyridin-5-yl)-2-pyridyl]methanone]",0.0001 to 10
9,"CNC1CCN(C(=O)c2cccc(-c3cnc4[nH]c(-c5ccnc(OC)c5)cc4c3)n2)C1 (stereo not drawn) [Compound P-0060, [6-[2-(2-methoxy-4-pyridyl)-1H-pyrrolo[2,3-b]pyridin-5-yl]-2-pyridyl]-[3-(methylamino)pyrrolidin-1-yl]methanone]",0.0001 to 10
10,"CNC1CCN(C(=O)c2cccc(-c3cnc4[nH]c(-c5cnn(CC(F)(F)F)c5)cc4c3)n2)C1 (stereo not drawn) [Compound P-0061, [3-(methylamino)pyrrolidin-1-yl]-[6-[2-[1-(2,2,2-trifluoroethyl)pyrazol-4-yl]-1H-pyrrolo[2,3-b]pyridin-5-yl]-2-pyridyl]methanone]",0.0001 to 10
11,"CNC1CCN(C(=O)c2cccc(-c3cnc4[nH]c(-c5cccc(C#N)c5)cc4c3)n2)C1 (stereo not drawn) [Compound P-0062, 3-[5-[6-[3-(methylamino)pyrrolidine-1-carbonyl]-2-pyridyl]-1H-pyrrolo[2,3-b]pyridin-2-yl]benzonitrile]",0.0001 to 10
12,"CNC1CCN(S(=O)(=O)c2cccc(-c3cnc4[nH]c(-c5ccccc5)cc4c3)n2)C1 (stereo not drawn) [Compound P-0063, N-methyl-1-[[6-(2-phenyl-1H-pyrrolo[2,3-b]pyridin-5-yl)-2-pyridyl]sulfonyl]pyrrolidin-3-amine]",0.0001 to 10
13,"CN1CCC(NC(=O)c2cccc(-c3cnc4[nH]c(-c5ccccc5)cc4c3)n2)C1 (stereo not drawn) [Compound P-0064, N-(1-methylpyrrolidin-3-yl)-6-(2-phenyl-1H-pyrrolo[2,3-b]pyridin-5-yl)pyridine-2-carboxamide]",0.0001 to 10
14,"CNC1CCN(C(=O)c2cccc(-c3cnc4[nH]c(C5=CCC(C)(C)CC5)cc4c3)n2)C1 (stereo not drawn) [Compound P-0070, [6-[2-(4,4-dimethylcyclohexen-1-yl)-1H-pyrrolo[2,3-b]pyridin-5-yl]-2-pyridyl]-[3-(methylamino)pyrrolidin-1-yl]methanone]",0.0001 to 10
15,"O=S(=O)(NC1CNC1)c1cccc(-c2cnc3[nH]c(-c4ccccc4)cc3c2)n1 [Compound P-0071, N-(azetidin-3-yl)-6-(2-phenyl-1H-pyrrolo[2,3-b]pyridin-5-yl)pyridine-2-sulfonamide]",0.0001 to 10
16,"O=S(=O)(NC1CCNC1)c1cccc(-c2cnc3[nH]c(-c4ccccc4)cc3c2)n1 (stereo not drawn) [Compound P-0072, 6-(2-phenyl-1H-pyrrolo[2,3-b]pyridin-5-yl)-N-pyrrolidin-3-yl-pyridine-2-sulfonamide]",0.0001 to 10
17,"NC1CCN(S(=O)(=O)c2cccc(-c3cnc4[nH]c(-c5ccccc5)cc4c3)n2)CC1 [Compound P-0073, 1-[[6-(2-phenyl-1H-pyrrolo[2,3-b]pyridin-5-yl)-2-pyridyl]sulfonyl]piperidin-4-amine]",0.0001 to 10
18,"CN1CC(NC(=O)c2cccc(-c3cnc4[nH]c(-c5ccccc5)cc4c3)n2)C1 [Compound P-0075, N-(1-methylazetidin-3-yl)-6-(2-phenyl-1H-pyrrolo[2,3-b]pyridin-5-yl)pyridine-2-carboxamide]",0.0001 to 10

# More lines, now with the values ahead:
row,IC50 [µM],Compound
1,0.0001 to 10,"CONC(=O)c1cccc(-c2cnc3[nH]c(-c4ccccc4)cc3c2)c1 [Compound P-0003, N-methoxy-3-(2-phenyl-1H-pyrrolo[2,3-b]pyridin-5-yl)benzamide]"
2,0.0001 to 10,"NC(=O)Nc1ccc(-c2cnc3[nH]c(-c4ccccc4)cc3c2)cc1 [Compound P-0005, [4-(2-phenyl-1H-pyrrolo[2,3-b]pyridin-5-yl)phenyl]urea]"
3,0.0001 to 10,"CNC(=O)Nc1ccc(-c2cnc3[nH]c(-c4ccccc4)cc3c2)cc1 [Compound P-0006, 1-methyl-3-[4-(2-phenyl-1H-pyrrolo[2,3-b]pyridin-5-yl)phenyl]urea]"
4,0.0001 to 10,"NC1CCN(C(=O)c2n[nH]c3ccc(-c4cnc5[nH]c(-c6ccccc6)cc5c4)cc23)CC1 [Compound P-0012, (4-amino-1-piperidyl)-[5-(2-phenyl-1H-pyrrolo[2,3-b]pyridin-5-yl)-1H-indazol-3-yl]methanone]"
5,0.0001 to 10,"NC1CCN(C(=O)c2cccc(-c3cnc4[nH]c(-c5ccccc5)cc4c3)n2)CC1 [Compound P-0013, (4-amino-1-piperidyl)-[6-(2-phenyl-1H-pyrrolo[2,3-b]pyridin-5-yl)-2-pyridyl]methanone]"
6,0.0001 to 10,"N[C@H]1CCN(C(=O)c2cccc(-c3cnc4[nH]c(-c5ccccc5)cc4c3)n2)C1 [Compound P-0015, [(3S)-3-aminopyrrolidin-1-yl]-[6-(2-phenyl-1H-pyrrolo[2,3-b]pyridin-5-yl)-2-pyridyl]methanone]"
7,0.0001 to 10,"N[C@H]1CCN(C(=O)c2n[nH]c3ccc(-c4cnc5[nH]c(-c6ccccc6)cc5c4)cc23)C1 [Compound P-0016, [(3S)-3-aminopyrrolidin-1-yl]-[5-(2-phenyl-1H-pyrrolo[2,3-b]pyridin-5-yl)-1H-indazol-3-yl]methanone]"
8,0.0001 to 10,"CC(C)(C)OC(=O)NC1CCN(C(=O)c2cccc(-c3cnc4[nH]c(-c5ccccc5)cc4c3)n2)CC1 [Compound P-0017, tert-butyl N-[1-[6-(2-phenyl-1H-pyrrolo[2,3-b]pyridin-5-yl)pyridine-2-carbonyl]-4-piperidyl]carbamate]"
9,0.0001 to 10,"NC1CCC(NC(=O)c2cccc(-c3cnc4[nH]c(-c5ccccc5)cc4c3)n2)CC1 (stereo not drawn) [Compound P-0018, N-(4-aminocyclohexyl)-6-(2-phenyl-1H-pyrrolo[2,3-b]pyridin-5-yl)pyridine-2-carboxamide]"
10,0.0001 to 10,"CC(=O)NC1CCN(C(=O)c2cccc(-c3cnc4[nH]c(-c5ccccc5)cc4c3)n2)CC1 [Compound P-0020, N-[1-[6-(2-phenyl-1H-pyrrolo[2,3-b]pyridin-5-yl)pyridine-2-carbonyl]-4-piperidyl]acetamide]"
11,0.0001 to 10,"CN1CCC(NC(=O)c2n[nH]c3ccc(-c4cnc5[nH]c(-c6ccccc6)cc5c4)cc23)CC1 [Compound P-0022, N-(1-methyl-4-piperidyl)-5-(2-phenyl-1H-pyrrolo[2,3-b]pyridin-5-yl)-1H-indazole-3-carboxamide]"
12,0.0001 to 10,"O=C(c1cccc(-c2cnc3[nH]c(-c4ccccc4)cc3c2)n1)N1CCC(CO)CC1 [Compound P-0023, [4-(hydroxymethyl)-1-piperidyl]-[6-(2-phenyl-1H-pyrrolo[2,3-b]pyridin-5-yl)-2-pyridyl]methanone]"
